Source: patent US20240060990A1, “SPATIAL SIGNALING NETWORKS FOR MULTIPLEXED DRUG RESPONSE MEASUREMENT AND MODELING” (Georgia Tech Research Corporation, priority 2022, published 2024)
Entries after “also recorded” stand apart in the source; their conditions may differ.

What was measured:
[1] = system: PC9 cells; test: RapMIF pixel clustering and spatial signaling network; assay type: cell-based, human
Text: Pixel clustering: Pixel phenotypes were clustered in a two-step clustering pipeline (FIG. 6A). From each pixel location within the cell segmented region, the intensity value of each marker expression was extracted. The resulting feature matrix consisted of n rows of a total number of pixels and p columns equal to the number of markers. Each column of the feature matrix was min-max normalized. Then to filter out the background, each pixel location (row in the matrix) with all markers intensity lower than 0.3 was considered as background and dropped from the feature matrix. The cut-off of 0.3 was determined empirically so noise was filtered out of the cell segmented region. The feature matrix was first clustered using the K-Means algorithm with a high number of clusters (k=60). Then, the mean expression per cluster was calculated and the cluster was merged based on hierarchical clustering on the cosine similarity of the mean expression using the average linkage method with a tolerance of 0.2 of the maximum distance between clusters. The latent feature space was obtained using Uniform manifold approximation and projection (UMAP) and cluster labels were visualized by assigning each cluster color and reprojected on the UMAP embedding. A Heatmap of the mean expression level of marker per cluster was generated to show the variation of cluster phenotype.
Spatial signaling network: The network representation of spatial signaling was represented using the spatial information of pixel clustering. Each cluster was represented by a node with node size in the network proportional to the number of pixels in the corresponding cluster. For each cluster, the distribution of the neighbor cluster was calculated by looking at the 2-hop neighbor's cluster of all pixels in the cluster. The edge color represented low (blue) to high (red) neighboring probability between two clusters.

[2] = system: Mcl-1; conditions: cited from earlier work
[3] = system: p-EGFR (Tyr1086); test: RapMIF multiplexed immunofluorescence in PC9 cells, p-EGFR; assay type: cell-based, human; conditions: 40 nM
Experimental: Following that, the cells were then fixed and permeabilized with 1.6% formaldehyde in 1×PBS for 10 minutes at RT and 0.5% Triton X-100 for 10 minutes at RT, respectively (FIG. 10A). The cells were then blocked using a cell staining medium (CSM) containing […]. […] PC9 cells were stained with p-EGFR and β-tubulin overnight followed by 1-hour incubation of secondary antibodies at RT, and 15 mins DAPI staining. The cells were then imaged at 40× magnification, and the cell number was analyzed using ImageJ. […] The coverslip was mounted to an acrylic holder for multiple cycles of staining.

[4] = system: HCC827-derived mouse xenografts; test: Tumor growth of HCC827-derived xenografts in mice; assay type: in vivo; conditions: daily Osimertinib

Question: For `C=CC(=O)Nc1cc(Nc2nccc(-c3cn(C)c4ccccc34)n2)c(OC)cc1N(C)CCN(C)C` [Osimertinib], which spatial signaling networks [1] is on record?
Answer: altered

Question: What about the “p-β-catenin clusters 12 and 19: degree of node and neighborhoods” value ([1]; 40 nM vs control) of the same molecule?
Answer: higher degree of a node and more neighborhoods with p-EGFR clusters

Question: What about the “distribution of spatial signaling network maps in the cytosol (clusters 0, 1, 2)” value ([1]; 40 nM, 48 hours vs control) of the same molecule?
Answer: more dispersed (i.e., less aggregated) distribution in the cytosol; also recorded: more dispersed distribution in the cytosol

Question: And the “proportion (frequency) of cluster 2 (WNT1) and cluster 6 (non-p-β-catenin)” value ([1]; after 40 nM drug treatment)?
Answer: occupied a large proportion (frequency) after drug treatment

Question: And the “degree of the node of WNT1 in cluster 2” value ([1]; control vs 40 nM)?
Answer: reduced from 10 to 4

Question: And the Mcl-1 level [2]?
Answer: downregulates Mcl-1

Question: What about the “p-EGFR localization (cell membrane, nucleus)” value ([3]; 48 hours) of the same molecule?
Answer: mainly localized in the cell membrane and the nuclear p-EGFR expression was relatively low

Question: And the “p-EGFR (Tyr1086) expression level in multiplexed heatmap” value ([3]; 48 hours vs control)?
Answer: remained minimally enhanced; also recorded: remained minimally altered

Question: And the “spatial continuity of p-EGFR distribution on the cell membrane” value ([3]; 48 hours vs control)?
Answer: disrupted spatial continuity in the p-EGFR distributions on the cell membrane

Question: And the tumor ([4]; 5-day treatment)?
Answer: almost disappeared

Question: What about the “tumor as treatment continued (acquired resistance)” value ([4]; continued treatment) of the same molecule?
Answer: grew back and larger

Question: And the xenograft growth ([4]; first week)?
Answer: effectively inhibited for the first week
